Test results: patent publication US20240299481A1, “STEPHANIA CEPHARANTHA-DERIVED ALKALOID-CONTAINING PREPARATION” (JAPAN AS REPRESENTED BY DIRECTOR-GENERAL OF NATIONAL …, priority 2021, published 2024)

How the values were obtained:
VeroE6/TMPRSS2 cells = assay type: cell-based; conditions: 24 hours, FIG. 2A-2E
Procedure: VeroE6/TMPRSS2 cells were cultured at 37° C. in 5% of a CO2 atmosphere by using Dulbecco's Modified Eagle's Medium (DMEM, Life Technologies Corporation) added with 10% of a fetal bovine serum (FBS, Cell Culture Bioscience Corporation), 100 units/ml of penicillin, 100 μg/ml of streptomycin, 10 mM of HEPES (pH7.4) and 1 mg/ml of G418 disulfate (Nacalai Tesque, Inc.). In infection tests, it was changed to 2% of FBS and no G418 disulfate was added.
The Stephania cepharantha-derived alkaloid-containing preparation, Cepharanthine, Isotetrandrine, Cycleanine, or Berbamine were added to the medium of the VeroE6/TMPRSS2 cells and, and the cells cultured for 24 hours were fixed with 4% of paraformaldehyde, and nucleuses were stained with DAPI. Thereafter, the number of viable cells were measured using an ImageXpress Micro Confocal (Molecular Device, LLC).

[1] = system: Novel coronavirus SARS-COV-2 Wk-521 strains (Wuhan strain); assay type: cell-based; conditions: for antiviral effect compared with the preparation / other alkaloids: Wuhan strain, VeroE6/TMPRSS2 cells
SARS coronavirus = conditions: cited from earlier work
[2] = system: human coronavirus OC43 strain; conditions: early stage of infection in cells, MRC-5 human lung cells; cited from earlier work

| SMILES | cytotoxic effect (number of viable cells with increasing addition concentration) (VeroE6/TMPRSS2 cells) | antiviral effect (number of viral RNA with increasing addition concentration) [1] | antiviral effect compared with the preparation / other alkaloids [1] | antiviral effect against the SARS coronavirus (SARS coronavirus) | antiviral effects on the human coronavirus OC43 strain [2] |
| --- | --- | --- | --- | --- | --- |
| COc1cc2c3cc1Oc1c(OC)c(OC)cc4c1[C@@H](Cc1ccc(O)c(c1)Oc1ccc(cc1)C[C@@H]3N(C)CC2)N(C)CC4 [Berbamine] | showed cytotoxic effects | showed antiviral effects | weak antiviral effect |  |  |
| COc1ccc2cc1Oc1ccc(cc1)C[C@H]1c3c(cc4c(c3Oc3cc5c(cc3OC)CCN(C)[C@@H]5C2)OCO4)CCN1C [Cepharanthine] | showed cytotoxic effects | showed antiviral effects | comparable to the Stephania cepharantha-derived alkaloid-containing preparation | has an antiviral effect | have antiviral effects |
| COc1cc2c3c(c1OC)Oc1ccc(cc1)C[C@@H]1c4c(cc(OC)c(OC)c4Oc4ccc(cc4)C[C@H]3N(C)CC2)CCN1C [Cycleanine] | showed cytotoxic effects | showed antiviral effects | comparable to the Stephania cepharantha-derived alkaloid-containing preparation |  |  |
| COc1ccc2cc1Oc1ccc(cc1)C[C@H]1c3cc(c(OC)cc3CCN1C)Oc1c(OC)c(OC)cc3c1[C@@H](C2)N(C)CC3 [Isotetrandrine] | showed cytotoxic effects | showed antiviral effects | comparable to the Stephania cepharantha-derived alkaloid-containing preparation |  |  |
